According to US5212320A, “Indole derivatives and their use for testosterone 5-alpha-reductase-mediated diseases” (Fujisawa Pharmaceutical Co., Ltd., priority 1990, dated 1993):
pIC50: −log10 of the molar value. Counter-ions that a name gives are not always drawn.

These molecules were tested against testosterone 5α-reductase (assay: Inhibitory activity on testosterone 5α-reductase in rats (prostatic testosterone 5α-reductase assay)). Details: rat ventral prostate suspension; 2.2×10^-9 M 1,2,6,7-^3H-testosterone/testosterone; 50 μM NADPH; pH 6.5; 37° C., 30 minutes.
Assay type: biochemical, rat (Spraque-Dawley male
Description: [2] INHIBITORY ACTIVITY ON TESTOSTERONE 5α-REDUCTASE IN RATS
1,2,6,7-^3 H-Testosterone (85-105 Ci/mmol): 1,2,6,7-^3 H-Testosterone (85-105 Ci/mmol) is a mixture of 1,2,6,7-^3 H-testosterone and testosterone which includes 85-105 Ci of 1,2,6,7-^3H-testosterone per mmol of testosterone and is purchased from New England Nuclear, Boston, Mass., U.S.A.
Aquazol-2 (Aquazol-2 Universal LSC Cocktail): trademark, purchased from New England Nuclear, Boston, Mass., U.S.A.
Mature Spraque-Dawley male rats (7-8 weeks old) were sacrificed by diethyl ether. The ventral prostates were dissected to be free of their capsules and their combined volume was measured by displacement in several milliliters of ice-cold medium A (0.32M sucrose, 0.1 mM dithiothreitol and 20 mM scdium phosphate, pH 6.5). Unless specified, all the following procedures were carried out at 0°-4° C. The prostates were drained, minced, and then homogenized in 3-4 tissue volumes of medium A with Pyrex-glass homogenizer. The homogenate was fractioned by differential centrifugations at 3,000 g for 15 minutes. The resulting pellets were resuspended in medium A. The suspension (20-30 mg protein/ml) was stored at -80° C.
The reaction solution contains 1 mM dithiothreitol, 40 mM sodium phosphate pH 6.5, 50 μM NADPH, 1,2,6,7-^3 H-testosterone/testosterone (2.2×10^-9 M) and the suspension prepared above (0.8 mg of protein) in a total volume of 565 μl. Test Compound was added in 10 μl of 10% ethanol whereas control tubes received the same volume of 10% ethanol. The reaction was started with the addition of the enzyme suspension. After incubation at 37° C. for 30 minutes, the reaction was extracted with 1 ml of ethyl acetate. Fifty μl of ethyl acetate phase was chromatographed on a Merck silica plastic sheet Kieselgel 60 F254, using ethyl acetate: cyclohexane (1:1) as the developing solvent system. The plastic sheet was air dried and cut the testosterone and the 5α-dihydrotestosterone areas. The radioactivity was counted in 5 ml of Aquazol-2 in Packard scintillation counter (PACKARD TRI - CARB 4530), and an inhibitory ratio was calculated.

| Structure (SMILES) | pIC50 |
| --- | --- |
| O=C(O)CCCn1cc(C(=O)c2cccc(CN3c4ccccc4CCc4ccccc43)c2)c2ccccc21 [(6), 4-[3-[3-(10,11-Dihydro-5H-dibenz[b,f]azepin-5-ylmethyl)benzoyl]indol-1-yl]butyric acid] | 9.03 |
| CC(C)Cc1ccc(C(C)Oc2ccc(C(=O)c3cn(CCCC(=O)O)c4ccccc34)cc2)cc1 (centres unmarked) [(4), 4-[3-[4-[1-(4-Isobutylphenyl)ethoxy]benzoyl]indol-1-yl]butyric acid] | 8.51 |
| CC(C)Cc1ccc(C(Nc2cccc(C(=O)c3cn(CCCC(=O)O)c4ccccc34)c2)c2ccc(CC(C)C)cc2)cc1 [(1), 4-[3-[3-[Bis(4-isobutylphen-yl)methylamino]benzoyl]indol-1-yl]butyric acid] | 8.26 |
| CC(C)Cc1ccc(C(Cc2cccc(C(=O)c3cn(CCCC(=O)O)c4ccccc34)c2)c2ccc(CC(C)C)cc2)cc1 [(5), 4-[3-[3-[2,2-Bis(4-isobutylphenyl)ethyl]benzoyl]indol-1-yl]butyric acid] | 8.13 |
| CC(C)Cc1ccc(C(Oc2ccc(C(=O)c3cn(CCCC(=O)O)c4ccccc34)cc2)c2ccc(CC(C)C)cc2)cc1 [(3), 4-[3-[4-[Bis(4-isobutylphenyl)methoxy]benzoyl]indol-1-yl]butyric acid] | 8.46 |
| Cc1c(C(=O)c2cccc(NC(c3ccc(CC(C)C)cc3)c3ccc(CC(C)C)cc3)c2)c2ccccc2n1CCCC(=O)O [(2), 4-[3-[3-[Bis(4-isobutylphenyl)methylamino]benzoyl]-2-methylindol-1-yl]butyric acid] | 8.07 |
| CCCCC(Oc1ccc(C(=O)c2cn(CCCC(=O)O)c3ccccc23)cc1)c1ccc(CC(C)C)cc1 (centres unmarked) [(8)] | 9.18 |
| CC(C)Cc1ccc(CNc2cc(NCc3ccc(CC(C)C)cc3)cc(C(=O)c3cn(CCCC(=O)O)c4ccccc34)c2)cc1 [(7), 4-[3-[3,5-Bis[(4-isobutylbenzyl)amino]benzoyl]indol-1-yl]butyric acid dihydrochloride] | 8.43 |
